This passage reports MIC90 results from patent US20080200442A1, “Compositions and Methods for Treating, Reducing, Ameliorating, or Preventing Infections of the Ear or Upper Respiratory Tract” (priority 2007, published 2008).

Common to all, as to type: cell-based
The test system of one assay is Moraxella species. The experiment in a line: In vitro anti-bacterial activity (MIC90), ophthalmologic clinical bacteria isolates. The note with it: Gram-negative.
The test system of another assay is Pseudomonas aeruginosa. Described as above. The note with it: Gram-negative.
The next assay deals with Haemophilus influenzae. The description is as above. The note with it: Gram-negative.
In a further assay the test system is Staphylococcus aureus. The description is as above. As to conditions: Gram-positive.
The subject of assay [1] is Coagulase-negative Staphylococcus. The assay is described as above. As to conditions: Gram-positive.
In a further assay the test system is Streptococcus pneumoniae. Described as above. As to conditions: Gram-positive.
A further assay deals with Corynebacterium species. The assay is described as above. The note with it: Gram-positive.
The subject of another assay is Propionibacterium acnes. The assay is described as above. The note with it: Cutibacterium acnes, Gram-positive.
Assay [2] has as its system Ofloxacin-resistant Staphylococcus aureus. The description is as above.
Assay [3] relates to Gentamycin-resistant Staphylococcus aureus. The description is as above.
Assay [4] relates to Gentamycin-resistant Pseudomonas aeruginosa. Described as above.
Assay [5] concerns Penicillin-resistant Streptococcus pneumoniae. The assay is described as above.
The test system of assay [6] is Salmonella typhimurium (TD). The experiment in a line: In vitro anti-bacterial activity (MIC90), Gram-negative reference strains. The protocol:
Anti-bacterial activity of the compound having Formula III was tested against several Gram-negative reference bacteria strains and compared to the anti-bacterial activity of three commercially available antibiotics (nadifloxacin, ofloxacin, and sparfloxacin).

In assay [7] the test system is Bacillis subtilis (ATCC 6633). Briefly: In vitro anti-bacterial activity (MIC90), Gram-positive reference strains. How it is done:
(§1) Anti-bacterial activity of the compound having Formula III was tested against several Gram-negative reference bacteria strains and compared to the anti-bacterial activity of three commercially available antibiotics (nadifloxacin, ofloxacin, and sparfloxacin). The results are shown in Table 2 as MIC90 values (minimum concentration of the active compound required to inhibit ninety percent of the growth of a specified pathogen, in μg/ml). Anti-bacterial activity of the compound having Formula III was tested against several Gram-positive reference bacteria strains and compared to the anti-bacterial activity of three commercially available antibiotics (nadifloxacin, ofloxacin, and sparfloxacin).

Assay [8] has as its system Sarcina lutea (ATCC 9341). Described as above. As to conditions: Micrococcus luteus, ATCC9341. How it is done:
as §1

The subject of assay [9] is Staphylococcus aureus (ATCC 25933). The description is as above. As to conditions: ATCC25933. How it is done:
as §1

The subject of assay [10] is Staphylococcus aureus (FDA 209P). The assay is described as above. The note with it: FDA209P. How it is done: as §1
The test system of assay [11] is Staphylococcus aureus (Smith). Described as above. How it is done: as §1
In assay [12] the test system is Staphylococcus epidermidis (ATCC 12228). Described as above. As to conditions: ATCC12228. How it is done: as §1
In assay [13] the test system is Streptococcus faecalis (ATCC 29212). The assay is described as above. As to conditions: Enterococcus faecalis, ATCC29212. The protocol: as §1
Assay [14] relates to Streptococcus faecalis (IFO 12964). Described as above. The note with it: Enterococcus faecalis, IFO12964. The protocol:
as §1

In assay [15] the test system is Streptococcus pneniae (IID 554). Described as above. As to conditions: IID554. The protocol: as §1
Assay [16] relates to Streptococcus pneumoniae (IID 553). The description is as above. The note with it: IID553. The protocol:
as §1

In assay [17] the test system is Streptococcus pyogenes (Cook). The assay is described as above. The protocol: as §1
Assay [18] relates to Streptococcus pyogenes (IID 698). Described as above. The note with it: IID698. The protocol: as §1
In assay [19] the test system is Staphylococcus aureus (ATCC 33591). The experiment in a line: In vitro anti-bacterial activity (MIC90), methicillin-resistant Staphylococcus aureus isolates. As to conditions: ATCC33591; methicillin-resistant Staphylococcus aureus (ATCC 33591). The protocol:
(§2) Anti-bacterial activity of the compound having Formula III was tested against several Gram-negative reference bacteria strains and compared to the anti-bacterial activity of three commercially available antibiotics (nadifloxacin, ofloxacin, and sparfloxacin). The results are shown in Table 2 as MIC90 values (minimum concentration of the active compound required to inhibit ninety percent of the growth of a specified pathogen, in μg/ml).
(§3) Anti-bacterial activity of the compound having Formula III was tested against some methicillin-resistant Staphylococcus aureus bacteria strains and compared to the anti-bacterial activity of three commercially available antibiotics (nadifloxacin, ofloxacin, and sparfloxacin).

The test system of assay [20] is Staphylococcus aureus (ATCC 33592). The description is as above. As to conditions: ATCC33592; methicillin-resistant Staphylococcus aureus (ATCC 33592). How it is done: as §2, §3
In assay [21] the test system is Staphylococcus aureus (ATCC 33593). The assay is described as above. As to conditions: ATCC33593; methicillin-resistant Staphylococcus aureus (ATCC 33593). The protocol: as §2, §3
Assay [22] concerns Staphylococcus aureus (No. 395). Described as above. As to conditions: methicillin-resistant Staphylococcus aureus (No. 395). How it is done: as §2, §3
Assay [23] deals with Staphylococcus aureus (No. 415). The description is as above. As to conditions: methicillin-resistant Staphylococcus aureus (No. 415). The protocol:
as §2, §3

Assay [24] has as its system Staphylococcus aureus (No. 419). The assay is described as above. The note with it: methicillin-resistant Staphylococcus aureus (No. 419). The protocol:
as §2, §3

The subject of assay [25] is Staphylococcus aureus (No. 420). The assay is described as above. As to conditions: methicillin-resistant Staphylococcus aureus (No. 420). How it is done:
as §2, §3

For assay [26], the system named is Staphylococcus aureus (No. 421). The description is as above. As to conditions: methicillin-resistant Staphylococcus aureus (No. 421). How it is done: as §2, §3
For assay [27], the system named is Clostridium perfringens (KZ 210). Briefly: microbe, parasite or virus in culture.
Assay [28] relates to Peptostreptococcus micros (GIFU 7824). Briefly: In vitro anti-bacterial activity (MIC90), anaerobic reference bacteria. As to conditions: Parvimonas micra.
The test system of assay [29] is Peptostreptococcus magnum (GAI 0664). The description is as above.
In assay [30] the test system is Propionibacterium acnes (GAI 5419). The assay is described as above. As to conditions: Cutibacterium acnes.
The subject of assay [31] is Propionibacterium acnes (ATCC 6919). The description is as above. As to conditions: Cutibacterium acnes, ATCC6919.
Assay [32] deals with Propionibacterium acnes (ATCC 11828). The description is as above. The note with it: Cutibacterium acnes, ATCC11828.
Assay [33] deals with Bacteroides fragillis (GAI 0675). The description is as above.
Assay [34] concerns Bacteroides thetaiotaomicron (GAI 0659). The assay is described as above. The note with it: Bacteroides thetaiotaomicron.
Assay [35] deals with Bacteroides vulgatus (GAI 0673). The description is as above. As to conditions: Phocaeicola vulgatus.
The test system of assay [36] is Veillonella parvula (GAI 5602). The description is as above.

Converted amounts (≈) assume the structure as drawn. Bounds are passed on as bounds.

In the case of `CCn1cc(C(=O)O)c(=O)c2cc(F)c(N3CCNCC3)cc21` [Norfloxacin], the MIC90 in the assay on Moraxella species is 0.25 µg/mL (≈ 0.783 µM); against Pseudomonas aeruginosa it was 4 µg/mL (≈ 12.5 µM); against Haemophilus influenzae, at most 0.06 µg/mL; in the assay on Staphylococcus aureus it was over 128 µg/mL; in [1], 128 µg/mL (≈ 401 µM); with Streptococcus pneumoniae it was 8 µg/mL (≈ 25.1 µM). For the same compound, the MIC90 was 16 µg/mL (≈ 50.1 µM) with Corynebacterium species; 4 µg/mL (≈ 12.5 µM) against Propionibacterium acnes; over 128 µg/mL in [2]; 128 µg/mL (≈ 401 µM) in assay [3]; 128 µg/mL (≈ 401 µM) in assay [4]; 8 µg/mL (≈ 25.1 µM) in assay [5].
As to `C[C@@H]1CN(c2c(F)c(N)c3c(=O)c(C(=O)O)cn(C4CC4)c3c2F)C[C@H](C)N1` [Sparfloxacin], the MIC90 in assay [6] came to 0.012 mμg/mL; in assay [7], 0.024 µg/mL (≈ 0.0612 µM); in assay [8] it was 1.56 µg/mL (≈ 3.98 µM); in assay [9], 0.1 µg/mL (≈ 0.255 µM); in assay [10], 0.024 µg/mL (≈ 0.0612 µM); in assay [11], 0.05 µg/mL (≈ 0.127 µM). The MIC90 in assay [12] came to 0.2 µg/mL (≈ 0.51 µM); in [13], 0.39 µg/mL (≈ 0.994 µM); in [14], 0.78 µg/mL (≈ 1.99 µM); in assay [15], 0.39 µg/mL (≈ 0.994 µM); in [16], 0.39 µg/mL (≈ 0.994 µM); in assay [17], 0.39 µg/mL (≈ 0.994 µM). Further, the MIC90 stood at 0.2 µg/mL (≈ 0.51 µM) in assay [18]; 0.024 µg/mL (≈ 0.0612 µM) in assay [19]; 0.1 µg/mL (≈ 0.255 µM) in assay [20]; 0.024 µg/mL (≈ 0.0612 µM) in assay [21]; 0.05 µg/mL (≈ 0.127 µM) in assay [22]; 0.2 µg/mL (≈ 0.51 µM) in assay [23]. Moreover, the MIC90 in assay [24] stood at 1.56 µg/mL (≈ 3.98 µM); in assay [25], 0.78 µg/mL (≈ 1.99 µM); in assay [26], 0.39 µg/mL (≈ 0.994 µM); in assay [27], 0.39 µg/mL (≈ 0.994 µM); in [28] it was 0.78 µg/mL (≈ 1.99 µM); in [29], 0.1 µg/mL (≈ 0.255 µM). Also, the MIC90 in assay [30] amounted to 0.39 µg/mL (≈ 0.994 µM); in assay [31], 0.39 µg/mL (≈ 0.994 µM); in assay [32], 0.78 µg/mL (≈ 1.99 µM); in [33], 0.78 µg/mL (≈ 1.99 µM); in assay [34], 0.78 µg/mL (≈ 1.99 µM); in assay [35], 0.78 µg/mL (≈ 1.99 µM). In assay [36], this compound had an MIC90 of 0.2 µg/mL (≈ 0.51 µM).
